How the values were obtained:
PD-L1 mRNA = PD-L1 mRNA expression by RT-PCR in Karpas-299 cells; type: cell-based; details: Karpas-299, TAPI-2 at 278 μM, 24 hours; data not shown
[1] = system: Mel-B7H1 (transgenic melanoma) cells; test: sPD-L1 ELISA of supernatants of Mel-B7H1 cells; type: cell-based; details: FIG. 4D
Experimental: Several tumor cell lines were treated with PBS (placebo) or with various protease inhibitors, including matrix metalloprotease inhibitors TAPI-2 and TAPI-0, aspartic protease inhibitor Pepstatin, cysteine protease inhibitor E-64, serine protease inhibitor Aprotinin, combinations of these inhibitors, and an array of other matrix metalloprotease inhibitors. Cell supernatants were queried for sPD-L1 by ELISA as published elsewhere (Frigola et la., supra). In brief, paired mouse IgG2 monoclonal antibodies against extracellular rhB7-H1 were utilized in a capture-detection plate assay using biotinylation and HRP-streptavidin detection. […] Concentrations were determined by optical density measurements along a known standard curve of rhB7-H1. Karpas-299 cells were incubated at 10 MM cells per ml in cell culture media (RPMI plus FBS plus Penicillin/Streptomycin plus buffering reagents) over 24 hours in the presence of 1 μl/100 μl DMSO or PBS (placebo), TAPI-2 at 278 μM, Pepstatin at 206.5 μM, E-64 at 185 μM, or Aprotinin at 220 μM, or a combination of the above materials at various concentrations. […] All statistical analyses were performed using R! software. Two-sided, unpaired Student t tests assessed statistical differences in experimental groups except where otherwise indicated. P values indicate comparison to vehicle control groups. P<0.05 was considered statistically significant. […]

A549 cells = test: PD-L1 flow cytometry of A549 cells; type: cell-based; details: vs DMSO, FIGS. 7C, 7D
Experimental: (§1) FIGS. 7A and 7B are flow cytometry plots and graphs showing that cell PD-L1 expression is restored by treatment with an inhibitor of ADAM10 and/or ADAM17, and is decreased by treatment with exogenous recombinant ADAM10 or ADAM17. Cells were incubated in the presence of the indicated treatments, and PD-L1 flow cytometry was performed.

Karpas-299 cells [2] = test: sPD-L1 ELISA of supernatants of Karpas-299 cells treated with protease inhibitors; type: cell-based; details: for Karpas-299 production of sB7H1: Example 3, supernatants by ELISA, p<0.0001
Experimental: (§2) Several tumor cell lines were treated with PBS (placebo) or with various protease inhibitors, including matrix metalloprotease inhibitors TAPI-2 and TAPI-0, aspartic protease inhibitor Pepstatin, cysteine protease inhibitor E-64, serine protease inhibitor Aprotinin, combinations of these inhibitors, and an array of other matrix metalloprotease inhibitors. Cell supernatants were queried for sPD-L1 by ELISA as published elsewhere (Frigola et la., supra). In brief, paired mouse IgG2 monoclonal antibodies against extracellular rhB7-H1 were utilized in a capture-detection plate assay using biotinylation and HRP-streptavidin detection. […] Concentrations were determined by optical density measurements along a known standard curve of rhB7-H1. Karpas-299 cells were incubated at 10 MM cells per ml in cell culture media (RPMI plus FBS plus Penicillin/Streptomycin plus buffering reagents) over 24 hours in the presence of 1 μl/100 μl DMSO or PBS (placebo), TAPI-2 at 278 μM, Pepstatin at 206.5 μM, E-64 at 185 μM, or Aprotinin at 220 μM, or a combination of the above materials at various concentrations. […] All statistical analyses were performed using R! software. Two-sided, unpaired Student t tests assessed statistical differences in experimental groups except where otherwise indicated. P values indicate comparison to vehicle control groups. P<0.05 was considered statistically significant.
Subsequent studies were conducted in which Karpas-299 cells were incubated with different matrix metalloprotease inhibitors with varying specificities. For example, Karpas-299 cells were incubated at 10 MM cells per ml in cell culture media over 24 hours in the presence of 1 μl/100 μl DMSO (control), 50 μM TAPI-2, 50 μM TAPI-0, 50 μM GI254023X, 5 μM Ro 32-3555, 5 μM ARP 101, 50 μM UK 370106, 500 pM MMP-9 inhibitor I, 5 μM Doxycycline, or some combination thereof.
Aderbasib is a selective inhibitor of matrix metalloproteases ADAM10 and ADAM17. Karpas-299 cells were incubated at 1 MM-10 MM cells/ml and treated for 24 hours with concentrations of aderbasib ranging from 320 pM to […].
(§3) Karpas-299 lymphoma cells producing sB7-H1 were cultured with an array of protease inhibitors. Supernatants from these cultures were isolated and analyzed for sB7H1 concentration by ELISA. Subsequently, activated human CD8+ T cells were cultured with recombinant sB7H1 protein and cell survival was measured at 24 hours. CD8+ T cells also were cultured with sB7H1-rich tumor cell line supernatants versus sB7H1-depleted supernatants over 48 hours in the presence of placebo, low dose (10 nM), or high dose (1 μM) anti-PD-1 antibody pembrolizumab, and cell survival was measured.

[3] = system: Dul45 prostate cancer cells; test: sPD-L1 ELISA of supernatants of Dul45 prostate cancer cells; type: cell-based; details: FIG. 4C
Experimental: as §2
Further studies were conducted using different types of cells.

[4] = system: A786-0 (renal cell carcinoma) cells; test: sPD-L1 ELISA of supernatants of A786-0 cells treated with protease inhibitors; type: cell-based; details: A786-0 grown between 1 MM and 10 MM cells per ml; FIG. 4B
Experimental: Tumor cells were treated with PBS (placebo) or with various protease inhibitors, including MMP inhibitors TAPI-2 and TAPI-0, aspartic protease inhibitor Pepstatin, cysteine protease inhibitor E-64, serine protease inhibitor Aprotinin, combinations of these inhibitors, and an array of other MMP inhibitors. Cell supernatants were queried for sPD-L1 by ELISA. FIG. 4A, Karpas-299 (lymphoma) cells were treated with the indicated protease inhibitors. FIG. 4B, A786-0 (renal cell carcinoma) cells were treated with the indicated protease inhibitors. FIG. 4C, Dul45 cells were treated with the indicated protease inhibitors. FIG. 4D, Mel-B7H1 (transgenic melanoma) cells were treated with the indicated protease or metalloprotease inhibitors. FIG. 4E is a graph plotting sPD-L1 production induced by interferon treatment or high cell titer in A786-0 cells. Cells grown at 1 MM/ml in control DMSO produced little sPD-L1. […] FIG. 4F is a graph plotting the amount of sPD-L1 in supernatants of Karpas-299 cells treated with control or with varying concentrations of the ADAM10/17 inhibitor aderbasib.
Several tumor cell lines were treated with PBS (placebo) or with various protease inhibitors, including matrix metalloprotease inhibitors TAPI-2 and TAPI-0, aspartic protease inhibitor Pepstatin, cysteine protease inhibitor E-64, serine protease inhibitor Aprotinin, combinations of these inhibitors, and an array of other matrix metalloprotease inhibitors. Cell supernatants were queried for sPD-L1 by ELISA as published elsewhere (Frigola et la., supra). In brief, paired mouse IgG2 monoclonal antibodies against extracellular rhB7-H1 were utilized in a capture-detection plate assay using biotinylation and HRP-streptavidin detection. […] Concentrations were determined by optical density measurements along a known standard curve of rhB7-H1. […] Two-sided, unpaired Student t tests assessed statistical differences in experimental groups except where otherwise indicated. […]

Karpas-299 cells [5] = test: PD-L1 flow cytometry of Karpas-299 cells; type: cell-based; details: vs DMSO, FIGS. 7A, 7B
Experimental: as §1

CD8+ T cells [6] = test: CD8+ T cell survival with Karpas-299 supernatants, TMRE/Annexin-V flow cytometry; type: cell-based, human; details: for survival of CD8+ T cells: with Karpas-299 supernatant, FIG. 5C
Experimental: CD8+ T cells isolated from healthy subjects were incubated in the presence of 50% Karpas-299 supernatants of varying types and 50% fresh cell culture media. Supernatant types included sPD-L1-rich supernatants from Karpas-299 cells, supernatants from Karpas-299 cells treated with TAPI-0 to prevent sPL-L1 production, supernatants from Karpas-299 cells “spiked” with TAPI-0 after sPD-L1 production, and fresh culture media controls (FIG. 5C). Karpas-299 cell supernatants were generated by incubation at 10 MM cells/ml for 48 hours. TMRE/Annexin-V binding was measured by flow cytometry to assess the level of CD8+ T cell survival. Antibodies and reagents used for flow cytometry were Annexin-V-FITC, anti-mouse CD16/32 (BioLegend; San Diego, Calif.); anti-PD-L1, mouse isotype control (eBioScience/Thermo Fisher Scientific; Waltham, Mass.), TMRE-PE (Abcam; Cambridge, Mass.), BD Wash/Perm (Becton Dickenson; Waltham, Mass.). Flow cytometry was performed and analyzed using FlowJo (Treestar; Ashland, Oreg.).
CD8+ T cells were incubated with supernatants from Karpas-299 cells as above, plus varying doses of several anti-PD-1 antibodies.
as §3

CD8+ T cells [7] = test: CD8+ T cell survival with sPD-L1-rich Karpas-299 supernatant, with or without checkpoint inhibitors (trypan blue); type: cell-based, human; details: with sPD-L1-rich Karpas-299 supernatant, therapeutic doses of checkpoint inhibitor, n=3, FIG. 5B
Experimental: FIG. 5A is a graph plotting survival of CD8+ human T cells cocultured in the presence of PBS control or 5 μg/ml or 10 μg/ml recombinant sPD-L1. […] FIG. 5B is a graph plotting survival of CD8+ human T cells cultured in the presence of PBS control or sPD-L1-rich Karpas-299 cell line supernatant, in the presence or absence of PD1 or PD-L1 checkpoint inhibitors. Cell survival was measured by trypan blue staining. […] FIGS. 5C and 5D are a series of flow cytometry plots indicating survival of CD8+ T cells treated with various cell extracts and an anti-PD-1 antibody (nivolumab or pembrolizumab) or an anti-PD-L1 antibody (atezolizumab). FIG. 5C, CD8+ T cells isolated from healthy subjects were incubated with sPD-L1-rich supernatants from Karpas-299 cells, supernatants from Karpas-299 cells treated with inhibitor TAPI-0, supernatants from Karpas-299 cells “spiked” with TAPI-0 after isolation, and controls (top), and TMRE uptake/Annexin-V binding was measured by flow cytometry to assess the level of CD8+ T cell survival. CD8+ T cells also were incubated with supernatants from Karpas-299 cells, plus the indicated doses of anti-PD-1 and anti-PD-L1 antibodies (bottom). FIG. 5D, CD8+ T cells were incubated with PD-L1-rich supernatants from A787-0 RCC cells and the indicated concentrations of pembrolizumab. […]

CD8+ T cells [8] = test: CD8+ T cell survival with A786-0 supernatant plus pembrolizumab; type: cell-based, human; details: supernatants from A786-0 RCC cells (20% A786-0 supernatant), increasing concentrations; partial rescue; FIG. 5D
Experimental: FIG. 5A is a graph plotting survival of CD8+ human T cells cocultured in the presence of PBS control or 5 μg/ml or 10 μg/ml recombinant sPD-L1. […] FIG. 5B is a graph plotting survival of CD8+ human T cells cultured in the presence of PBS control or sPD-L1-rich Karpas-299 cell line supernatant, in the presence or absence of PD1 or PD-L1 checkpoint inhibitors. Cell survival was measured by trypan blue staining. […] FIGS. 5C and 5D are a series of flow cytometry plots indicating survival of CD8+ T cells treated with various cell extracts and an anti-PD-1 antibody (nivolumab or pembrolizumab) or an anti-PD-L1 antibody (atezolizumab). FIG. 5C, CD8+ T cells isolated from healthy subjects were incubated with sPD-L1-rich supernatants from Karpas-299 cells, supernatants from Karpas-299 cells treated with inhibitor TAPI-0, supernatants from Karpas-299 cells “spiked” with TAPI-0 after isolation, and controls (top), and TMRE uptake/Annexin-V binding was measured by flow cytometry to assess the level of CD8+ T cell survival. CD8+ T cells also were incubated with supernatants from Karpas-299 cells, plus the indicated doses of anti-PD-1 and anti-PD-L1 antibodies (bottom). FIG. 5D, CD8+ T cells were incubated with PD-L1-rich supernatants from A787-0 RCC cells and the indicated concentrations of pembrolizumab.
In brief, A786-0 cells were incubated at 10 MM cells/ml for 48 hours. […]

CC(C)C[C@H](CC(=O)NO)C(=O)N[C@H](C(=O)N[C@@H](C)C(=O)NCCN)C(C)(C)C [TAPI-2]
PD-L1 mRNA expression (RT-PCR) (PD-L1 mRNA): without reducing PD-L1 mRNA expression | sPD-L1 expression [1]: most significantly reduced | PD-L1 expression (flow cytometry) (A549 cells): restored | Karpas-299 production of sB7H1 (Karpas-299 cells [2]): inhibited | secretion of sPD-L1 (Karpas-299 cells [2]; Karpas-299, 10 MM cells per ml, 24 hours, TAPI-2 at 278 μM, vs DMSO or PBS, FIG. 4A, p=5.6×10^−12): reduced the secretion of sPD-L1 | sPD-L1 secretion versus controls [3]: significantly reduced | sPD-L1 secretion [4]: significantly reduced | PD-L1 expression (flow cytometry) (Karpas-299 cells [5]): restored

pembrolizumab: humanized anti-PD-1 antibody, trade name KEYTRUDA
sB7-H1-containing supernatant-induced CD8+ T cell death (CD8+ T cells [6]; Example 3, 48 hours, high dose (1 μM)): decreased | survival of CD8+ T cells (CD8+ T cells [6]; antibody at 10 nM): increased the survival | survival of CD8+ T cells (CD8+ T cells [6]; antibody at 1 μM, 1 μM pembrolizumab among the most effective): increased the survival | rescue of CD8+ T cell survival (CD8+ T cells [7]): did not rescue | survival of CD8+ T cells (CD8+ T cells [8]): increased the survival

CCN(CC)Cc1cc(C)c(N(Cc2ccccc2)S(=O)(=O)c2ccc(OC)cc2)c(C(=O)NO)c1 [MMPI9]
sPD-L1 secretion versus controls [3]: significantly reduced

CNC(=O)[C@@H](NC(=O)[C@H](CCCc1ccccc1)[C@H](C)N(O)C=O)C(C)(C)C [GI254023X]
sPD-L1 expression [1]: most significantly reduced | Karpas-299 production of sB7H1 (Karpas-299 cells [2]): inhibited

B1: ADAM10: exogenous recombinant ADAM10 (protein)
chain: TTSAEKNTCQLYIQTDHLFFKYYGTREAVIAQISSHVKAIDTIYQTTDFSGIRNISFMVKRIRINTTADEKDPTNPFRFPNIGVEKFLELNSEQNHDDYCLAYVFTDRDFDDGVLGLAWVGAPSGSSGGICEKSKLYSDGKKKSLNTGIITVQNYGSHVPPKVSHITFAHEVGHNFGSPHDSGTECTPGESKNLGQKENGNYIMYARATSGDKLNNNKFSLCSIRNISQVLEKKRNNCFVESGQPICGNGMVEQGEECDCGYSDQCKDECCFDANQPEGRKCKLKPGKQCSPSQGPCCTAQCAFKSKSEKCRDDSDCAREGICNGFTALCPASDPKPNFTDCNRHTQVCINGQCAGSICEKYGLEECTCASSDGKDDKELCHVCCMKKMDPSTCASTGSVQWSRHFSGRTITLQPGSPCNDFRGYCDVFMRCRLVDADGPLARLKKAIFSPELYENIAE
PD-L1 expression (flow cytometry) (A549 cells): decreased

From patent US20210361767A1, “RESCUING CANCER PATIENTS FROM RESISTANCE TO TREATMENT WITH INHIBITORS OF PD-1/PD-L1 INTERACTIONS” (Mayo Foundation for Medical Education and Research, priority 2018, published 2021)
